Assays:
δ-opioid receptor (DOR) = settings: ref Stanczyk et al., 2019; cited from earlier work
C57BL/6 mice = assay: Naloxone-precipitated opioid withdrawal paradigm; type: in vivo, mouse; settings: morphine 10 mg/kg s.c. or oxycodone 3.5 mg/kg s.c. twice a day for 5 consecutive days
[1] = ref Kandasamy et al., 2021; cited from earlier work
MOR = settings: ref Kandasamy et al., 2021; cited from earlier work
female C57Bl/6 mice = assay: Respiratory and heart rate measurements; type: in vivo, mouse
[2] = high dose 30 mg/kg s.c., compared with vehicle

## Cc1ccccc1COc1ccc(C2C3=C(CC(C)(C)CC3=O)OC3=C2C(=O)CC(C)(C)C3)cc1 [BMS-986187]
δ-opioid receptor (DOR)
  G protein activation vs β-arrestin recruitment: enhance G protein activation to a greater extent than β-arrestin recruitment

## COc1ccc2c3c1O[C@H]1C(=O)CC[C@@]4(O)[C@@H](C2)N(C)CC[C@]314 [oxycodone]
C57BL/6 mice
  naloxone-precipitated withdrawal syndrome of the opioid: mild withdrawal syndrome

## COc1ccc(C2SCCN2S(=O)(=O)c2ccc(Cl)cc2)cc1Br (centres unmarked) [BMS-986122]
[1]
  antinociception and side effects in vivo: produces antinociception with reduced side effects
MOR
  G protein activation vs β-arrestin recruitment: enhance G protein activation to a greater extent than β-arrestin recruitment

## CN1CC[C@]23c4c5ccc(O)c4O[C@H]2[C@@H](O)C=C[C@H]3[C@H]1C5 [morphine]
C57BL/6 mice
  naloxone-precipitated withdrawal syndrome of the opioid: mild withdrawal syndrome
Female C57Bl/6 mice; [2]
  breathing rate (respiratory depression): caused significant respiratory depression
  heart rates: decrease in heart rates
Female C57Bl/6 mice; mice
  dose for respiratory depression relative to dose required for analgesia: three to five times
